# Results from ChEMBL document CHEMBL1123040, “Molecular mechanism of action of 5,6-dihydroxytryptamine. Synthesis and biological evaluation of 4-methyl-, 7-methyl-, and 4,7-dimethyl-5,6-dihydroxytryptamines” (J Med Chem, 1985).
# What was measured:
# [1] = biological target: T1, Sodium-dependent serotonin transporter (Rattus norvegicus, UniProt P31652); assay: Inhibitory activity against incorporation of [3H]5-HT transporter uptake into the differentiated N-2a cells.; format: cell-based
# [2] = biological target: T1, Sodium-dependent serotonin transporter; assay: Inhibitory activity against incorporation of Serotonin transporter uptake into the differentiated N-2a cells.; format: cell-based
# T1 sequence (P31652 whole entry): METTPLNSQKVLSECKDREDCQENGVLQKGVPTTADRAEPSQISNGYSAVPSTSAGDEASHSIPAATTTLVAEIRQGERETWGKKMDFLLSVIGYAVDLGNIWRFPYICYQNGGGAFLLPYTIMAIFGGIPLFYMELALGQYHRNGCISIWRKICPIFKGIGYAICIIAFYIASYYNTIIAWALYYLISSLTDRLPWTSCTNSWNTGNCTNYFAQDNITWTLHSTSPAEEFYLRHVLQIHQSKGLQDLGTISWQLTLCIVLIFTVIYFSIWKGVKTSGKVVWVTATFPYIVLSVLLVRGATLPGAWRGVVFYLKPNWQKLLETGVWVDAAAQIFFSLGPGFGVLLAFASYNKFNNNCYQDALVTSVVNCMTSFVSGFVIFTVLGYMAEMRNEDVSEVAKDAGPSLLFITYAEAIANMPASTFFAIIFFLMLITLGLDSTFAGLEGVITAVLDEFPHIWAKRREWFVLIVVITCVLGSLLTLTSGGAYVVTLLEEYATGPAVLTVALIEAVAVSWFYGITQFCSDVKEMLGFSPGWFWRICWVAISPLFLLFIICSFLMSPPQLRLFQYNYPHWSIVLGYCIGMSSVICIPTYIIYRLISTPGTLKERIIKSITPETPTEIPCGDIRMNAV
SMILES,IC50 [1] [µM],IC50 [2] [µM]
Cc1c(O)c(O)c(C)c2c(CCN)c[nH]c12,19.7,–
Cc1c(O)c(O)cc2[nH]cc(CCN)c12,23,–
NCCc1c[nH]c2cc(O)c(O)cc12,–,6
Cc1c(O)c(O)cc2c(CCN)c[nH]c12,51.8,–
